In patent publication US20260176320A1, “MODULATORS OF G-PROTEIN COUPLED RECEPTORS” (priority 2018, published 2026) one finds Emax and EC50 data, which are given here for 2 compounds.

Assay [1] deals with T1, GIP-R (Homo sapiens, UniProt P48546).
T1 sequence (P48546 22-466): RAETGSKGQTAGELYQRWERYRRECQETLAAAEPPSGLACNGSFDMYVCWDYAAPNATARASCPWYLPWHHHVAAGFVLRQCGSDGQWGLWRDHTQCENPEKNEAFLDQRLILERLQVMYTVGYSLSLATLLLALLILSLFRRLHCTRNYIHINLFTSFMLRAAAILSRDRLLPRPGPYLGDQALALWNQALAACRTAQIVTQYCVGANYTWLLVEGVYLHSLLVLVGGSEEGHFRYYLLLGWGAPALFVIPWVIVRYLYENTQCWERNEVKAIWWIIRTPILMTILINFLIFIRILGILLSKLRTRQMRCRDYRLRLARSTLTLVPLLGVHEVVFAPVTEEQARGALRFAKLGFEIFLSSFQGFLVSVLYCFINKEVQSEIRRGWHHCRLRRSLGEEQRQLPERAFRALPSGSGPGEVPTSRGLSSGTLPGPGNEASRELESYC
As to the kind of experiment: HitHunter cAMP assay (GIP-R). The assay is classed as cell-based. How it is done: (§1) Suspension cells were harvested and resuspended in 1×HBSS (+10 mM HEPES, 625 μM IBMX, 0.2% BSA) according to the following procedure: 5 μL of 2× cell suspension+1× antibody were added to each well, where the optimal cell density was 10,000 cells per well in a low volume 384-well plate. Agonist serial dilutions in a separate 384 well dilution plate in a 22-point series of 2× dilutions of agonist in DMSO were performed as follows. 80 μL of the highest concentration of Agonist/DMSO was added to well No. 1. 40 μL was removed from well No. 1 and added it to well No. 2, followed by gentle mixing. […] This process was repeated until well No. 22. Additional serial dilutions for additional agonists were set up in a similar manner. 50 nL of each 2× agonist serial dilution was added in duplicate to the designated agonist rows of the assay plate using the Labcyte ECHO. Assay plate was incubated for 30 minutes at room temperature. Following agonist incubation, 5 μL of cAMP Antibody Reagent was added to all wells. […] Plates were spun down briefly. Assay plate was incubated for 1 hour at room temperature in the dark for the immunocompetition reaction to occur. […] Plates were spun down briefly. Assay plate was incubated O/N at room temperature in the dark. Samples were read on Tecan i-control plate reader using luminescence mode with 300 ms integration time. Data analysis was performed using GraphPad Prism.

In assay [2] the target is GLP-1R (Homo sapiens, UniProt P43220). Briefly: HitHunter cAMP assay (GLP-1R). The assay is classed as cell-based. To be noted: for Emax: read-out: (Emax) GLP-1R. As to the method: as §1
Chain of GLP-1R (P43220 24-463): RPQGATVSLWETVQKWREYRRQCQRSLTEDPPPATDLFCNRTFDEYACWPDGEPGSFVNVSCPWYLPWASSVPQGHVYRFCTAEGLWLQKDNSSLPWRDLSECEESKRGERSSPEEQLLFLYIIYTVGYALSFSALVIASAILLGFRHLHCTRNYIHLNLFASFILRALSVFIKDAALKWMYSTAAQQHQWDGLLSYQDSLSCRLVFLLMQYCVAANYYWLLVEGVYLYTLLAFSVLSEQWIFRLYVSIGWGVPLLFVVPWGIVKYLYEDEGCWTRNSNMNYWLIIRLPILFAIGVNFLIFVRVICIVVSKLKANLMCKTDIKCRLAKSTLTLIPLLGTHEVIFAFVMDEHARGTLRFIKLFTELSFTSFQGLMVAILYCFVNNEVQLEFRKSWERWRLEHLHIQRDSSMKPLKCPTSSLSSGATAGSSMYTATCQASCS
Where [3] appears, read: read-out: EC50 GIP-R/nM, Table 3A, cAMP.

Where two headings read alike, the source gives them in different places. Square brackets hold non-standard residues; d marks the D form. Peptide text beside a SMILES is read from it. * marks the point of attachment. X1 = O=C(CSCC(=O)*)NCCN1C(=O)c2ccccc2C1=O; Aib = CC(C)(N)C(=O)O

As usually defined, the Emax is the greatest response seen or fitted, relative to the assay's reference. Regarding `CC[C@H](C)[C@H](NC(=O)[C@H](CO)NC(=O)[C@H](Cc1ccc(O)cc1)NC(=O)[C@H](CC(=O)O)NC(=O)[C@H](CO)NC(=O)[C@@H](NC(=O)[C@H](Cc1ccccc1)NC(=O)[C@@H](NC(=O)CNC(=O)[C@H](CCC(=O)O)NC(=O)CSCC(=O)NCCN1C(=O)c2ccccc2C1=O)[C@@H](C)O)[C@@H](C)O)C(=O)N[C@@H](Cc1ccc(O)cc1)C(=O)N[C@@H](CC(C)C)C(=O)N[C@@H](CC(=O)O)C(=O)N[C@@H](CCC(=O)O)C(=O)N[C@@H](CCC(N)=O)C(=O)N[C@@H](C)C(=O)N[C@@H](C)C(=O)NC(C)(C)C(=O)N[C@@H](CCC(=O)O)C(=O)N[C@@H](Cc1ccccc1)C(=O)N[C@H](C(=O)N[C@@H](CC(N)=O)C(=O)N[C@@H](Cc1c[nH]c2ccccc12)C(=O)N[C@@H](CC(C)C)C(=O)N[C@@H](CC(C)C)C(=O)N[C@@H](C)C(=O)NCC(=O)NCC(=O)N1CCC[C@H]1C(=O)N[C@@H](CO)C(=O)N[C@@H](CO)C(=O)NCC(=O)N[C@@H](C)C(=O)N1CCC[C@H]1C(=O)N1CCC[C@H]1C(=O)N1CCC[C@H]1C(=O)N[C@@H](CO)C(=O)N[C@@H](CCCCN)C(N)=O)C(C)C` [Compound 150] (X1-EGTFTSDYSIYLDEQAA[Aib]EFVNWLLAGGPSSGAPPPSK-NH2), the Emax in assay [1] (Table 3A, cAMP, read-out: (Emax) GIP-R) is 118 to 130%; in assay [2] (Table 3, cAMP) it was 95 to 113%; in assay [2] (Table 3A, cAMP), 95 to 113%. The EC50 is under 1 nM in assay [1] (read-out: EC50 GIP-R/nM, Table 3, cAMP); under 1 nM in assay [1] (setting [3]); 1 to 10 nM in assay [2] (EC50 GLP-1R/nM, Table 3, cAMP); 1 to 10 nM in assay [2] (EC50 GLP-1R/nM, Table 3A, cAMP).

`CC[C@H](C)[C@H](NC(=O)[C@H](CO)NC(=O)[C@H](Cc1ccc(O)cc1)NC(=O)[C@H](CC(=O)O)NC(=O)[C@H](CO)NC(=O)[C@@H](NC(=O)[C@H](Cc1ccccc1)NC(=O)[C@@H](NC(=O)CNC(=O)[C@H](CCC(=O)O)NC(=O)CSCC(=O)NCCN(C)C(=O)c1ccccc1)[C@@H](C)O)[C@@H](C)O)C(=O)N[C@@H](Cc1ccc(O)cc1)C(=O)N[C@@H](CC(C)C)C(=O)N[C@@H](CC(=O)O)C(=O)N[C@@H](CCCCN)C(=O)N[C@@H](CCC(N)=O)C(=O)N[C@@H](C)C(=O)N[C@@H](C)C(=O)NC(C)(C)C(=O)N[C@@H](CCC(=O)O)C(=O)N[C@@H](Cc1ccccc1)C(=O)N[C@H](C(=O)N[C@@H](CC(N)=O)C(=O)N[C@@H](Cc1c[nH]c2ccccc12)C(=O)N[C@@H](CC(C)C)C(=O)N[C@@H](CC(C)C)C(=O)N[C@@H](C)C(=O)NCC(=O)NCC(=O)N1CCC[C@H]1C(=O)N[C@@H](CO)C(=O)N[C@@H](CO)C(=O)NCC(=O)N[C@@H](C)C(=O)N1CCC[C@H]1C(=O)N1CCC[C@H]1C(=O)N1CCC[C@H]1C(=O)N[C@@H](CO)C(=O)N[C@@H](CCCCN)C(N)=O)C(C)C` [Compound 169]: the EC50 in assay [1] (EC50 GIP-R/nM, Table 3, cAMP) is over 1000 nM; in assay [1] (setting [3]) it was over 1000 nM; in assay [2] it was 1 to 10 nM; in assay [2] (read-out: EC50 GLP-1R/nM, Table 3A, cAMP) it was 1 to 10 nM. Besides, in assay [1] (read-out: (Emax) GIP-R at 1 μM), the Emax at 1 µM was 6 to 8%. The Emax in assay [2] is 96%.
